Drawing on US12358859B2, “Series of compounds for treatment of skin diseases and other conditions” (Unigen, Inc., priority 2018, dated 2025), this text covers ORAC for five compounds.

The nature of the test: ORAC 5.0 antioxidant capacity. The settings on record: Trolox reference standard. The source says:
Table 5 lists representative novel 1,6-dienes analogs of Formula I-III which are useful as anti-oxidant. ORAC 5.0 consists of five types of ORAC assays that evaluate the antioxidant capacity of material against five primary reactive oxygen species (ROSs, commonly called “oxygen radicals”) found in humans: peroxyl radical, hydroxyl radical, superoxide anion, singlet oxygen, and […]. Trolox is used as reference standard, and the results are expressed as μ mole Trolex equivalency per gram (or milliliter) of a tested material.
`CC(C)=CCC/C(C)=C/c1cc(O)cc(O)c1` [Compound 4, (E/Z)-5-(2,6-dimethylhepta-1,5-dienyl)benzene-1,3-diol] yielded an ORAC of 22580 μ mole TE/gram.
Next, `CC(C)=CCCC(C)/C=C/c1ccc(O)cc1` (centres unmarked) [Compound 5, (E)-4-(3,7-dimethylocta-1,6-dienyl)phenol]: 37643 μ mole TE/gram; `CC(C)=CCCC(C)/C=C/c1ccc(O)cc1O` (centres unmarked) [Compound 6, (E)-4-(3,7-dimethylocta-1,6-dienyl) benzene-1,3-diol]: 45869 μ mole TE/gram.
Consider `CC(C)=CCCC(C)/C=C/c1cc(O)cc(O)c1` (centres unmarked) [Compound 7, (E)-5-(3,7-dimethylocta-1,6-dienyl) benzene-1,3-diol], for which the ORAC was 18196 μ mole TE/gram.
As for `CC(C)=CCCC(C)C/C=C\c1cc(O)cc(O)c1` (centres unmarked) [Compound 15, (Z)-5-(4,8-dimethylnona-1,7-dienyl) benzene-1,3-diol], the figure is 11951 μ mole TE/gram.
